System: Erysiphe [syn. Blumeria] graminis forma specialis. tritici
Test: Activity against mildew of wheat (protective spray test on potted wheat seedlings)
Assay type: in vivo
Conditions: wheat seedlings cv. Kanzler, rated after 7 days
Procedure: The active compounds, separately or together, were formulated as a 10% emulsion in a mixture of 63% by weight of cyclohexanone and 27% by weight of emulsifier, and diluted with water to the desired concentration.
Evaluation was carried out by determining the infected leaf areas in percent. These percentages were converted into efficacies. The efficacy (w) was calculated as follows using Abbot's formula: [formula] • α corresponds to the fungal infection of the treated plants in % and • β corresponds to the fungal infection of the untreated (control) plants in %
An efficacy of 0 means that the infection level of the treated plants corresponds to that of the untreated control plants; an efficacy of 100 means that the treated plants were not infected.
The expected efficacies of the mixtures of the active compounds were determined using Colby's formula [R. S. Colby, Weeds 15, 20-22 (1967)] and compared with the observed efficacies. E =x+y−x·y/100 Colby's formula: • E expected efficacy, expressed in % of the untreated control, when using the mixture of the active compounds A and B at the concentrations a and b • x efficacy, expressed in % of the untreated control, when using active compound A at a concentration of a • y efficacy, expressed in % of the untreated control, when using active compound B at a concentration of b
Activity Against Mildew of Wheat Caused by Erysiphe [syn. Blumeria] graminis forma Specialis. tritici
Leaves of wheat seedlings of the cultivar “Kanzler” grown in pots were sprayed to runoff point with an aqueous preparation of active compound which had been prepared from a stock solution comprising 10% of active compound, 85% of cyclohexanone and 5% of emulsifier. 24 hours after the spray coating had dried on, the plants were dusted with spores of mildew of wheat (Erysiphe [syn. Blumeria] graminis forma specialis. tritici). The test plants were then placed in a greenhouse at 20-24° C. and 60-90% relative atmospheric humidity. After 7 days, the extent of the mildew development was determined visually in % infection of the entire leaf area.
The visually determined values for the percentage of infected leaf areas were converted into efficacies in % of the untreated control. An efficacy of 0 means the same degree of infection as in the untreated control, an efficacy of 100 means 0% infection. The expected efficacies for combinations of active compounds were determined using Colby's formula (Colby, S. R. (Calculating synergistic and antagonistic responses of herbicide Combinations”, Weeds, 15, p. 20-22, 1967) and compared to the observed effacacies.

[1] = 1 ppm in the spray liquor, inoculated 24 h after spraying

Measured: Efficacy in % of the untreated control

COC(=O)N(OC)c1ccccc1COc1ccn(-c2ccc(Cl)cc2)n1 [pyraclostrobin]
0%: 0.06 ppm in the spray liquor | 0.25 ppm in the spray liquor | [1]

CO/N=C(/C(=O)OC)c1ccccc1COc1ccccc1C [kresoxim-methyl]
0%: 0.06 ppm in the spray liquor | 0.25 ppm in the spray liquor | [1]

CO/C=C(/C(=O)OC)c1ccccc1Oc1cc(Oc2ccccc2C#N)ncn1 [azoxystrobin]
0%: 0.015 ppm in the spray liquor | 0.25 ppm in the spray liquor | [1]

Source: patent US20050182051A1, “Fungicidal mixtures based on benzamidoxime derivative and a strobilurin derivative” (priority 2002, published 2005)
